According to ChEMBL document CHEMBL5661955, “ASAP - In vitro cytotoxicity” (2024):
“And” between values parts separate entries of the source, which are not always exact repeats. Equal entries are not always repeated.

Columns and labels:
[1] = Functional assay to measure dose dependent changes in cell viability from drug treatment in Vero E6 miRFP670 cells (cotreated with P-gp inhibitor, CP100356) that are infected with Dengue virus type 2 New Guinea C. […] Cytotoxicity is reported via via analysis of DAPI count using high-content imager. The assay has been performed by KU Leuven.; format: toxicity, cell-based, Vero C1008; settings: chlorocebus sabaeus, p-gp concentration 500 nM
[2] = Functional CPE-based assay to measure dose dependent changes in cell viability from drug treatment in Vero E6 miRFP670 cells (cotreated with P-gp inhibitor, CP100356). Cells are treated with antiviral candidates that have been serially diluted. Cytotoxicity is reported via analysis of MTS assays in uninfected cells. The assay has been performed by KU Leuven.; format: toxicity, Vero C1008; settings: chlorocebus sabaeus, p-gp concentration 500 nM
[3] = with CP100356 (P-gp inhibitor, concentration not stated)
[4] = Vero E6 miRFP670 cells, with CP100356 (P-gp inhibitor, concentration not stated)

| SMILES | CC50 [1, 3] | CC50 [2, 4] | CC50 ([1]; vero c1008) | CC50 ([2]; vero c1008) |
| --- | --- | --- | --- | --- |
| CNC(=O)[C@H](Nc1ccc2c(c1)CNC2)c1cc(Cl)cc2[nH]ncc12 | 5.53 µM | > 50 µM | – | – |
| O=C(Nc1ccc2c(n1)CNC2)c1cc(Cl)cc2[nH]ncc12 | > 50 µM | > 50 µM | – | – |
| CC(=O)Nc1cc(Br)cc(C(=O)Nc2ccc3c(c2)CNC3)c1 | 0.561 µM | > 50 µM | – | – |
| CC(C)NC(=O)[C@H](Nc1ccc2c(c1)CNC2)c1cc(Cl)cc2[nH]c(-c3ccccc3)nc12 | – | – | 23.2 µM and 7.47 µM and 13.6 µM | 5.66 µM and 9.23 µM and 13.7 µM |
| O=C(Nc1ccc2c(c1)CNC2)c1cc(F)cc2[nH]c(-c3cnc(C4CC4)o3)nc12 | 1.86 µM | – | 2.55 µM | 3.86 µM and 1.41 µM |
| O=C(Nc1ccc2c(c1)CNC2)c1cccc2[nH]c(C(F)(F)F)cc12 | > 50 µM | 47.3 µM | – | – |
| O=C(Nc1ccc2c(c1)CNC2)c1cc(Cl)cc2cn[nH]c12 | 5 µM | > 50 µM | – | – |
| O=C(Nc1ccc2c(c1)CNC2)c1cc(Cl)cc2[nH]c(-c3ccnn3C3CC3)nc12 | 11.7 µM | 1.78 µM | – | – |
| O=C(Nc1ccc2c(c1)CNC2)c1cc(Br)cc2[nH]c(=O)[nH]c12 | 4.79 µM | > 50 µM | – | – |
| CNC(=O)[C@H](Nc1ccc2c(c1)CNC2)c1cc(Cl)cc2[nH]c(-c3ccccc3)nc12 | > 50 µM | – | – | 9.01 µM and 21.4 µM |
| O=C(Nc1ccc2c(c1)CNC2)c1cc(Cl)cc2[nH]c(-c3ccc(F)cc3O)nc12 | 1.64 µM | 2.19 µM | – | – |
| O=C(NCC(F)F)[C@H](Nc1ccc2c(c1)CNC2)c1cc(F)cc2[nH]ccc12 | 31.1 µM | > 50 µM | – | – |
| Cn1cc2c(C(=O)Nc3ccc4c(c3)CNC4)cc(F)cc2n1 | > 50 µM | > 50 µM | – | – |
| C=CC[C@H]1NCc2cc(NC(=O)c3cc(Cl)cc4[nH]ncc34)ccc21 | 3.12 µM | 11.8 µM | – | – |
| Cc1nc2c(C(=O)Nc3ccc4c(c3)CNC4)cc(Cl)cc2[nH]1 | 6.02 µM | 4.77 µM | – | – |
| O=C(Nc1cc(Cl)cc(-c2ccc3[nH]c(C(=O)O)cc3c2)c1)OCc1ccccc1 | 27.1 µM | 25.2 µM | 14.3 µM | – |

| SMILES | CC50 [1, 3] | CC50 [2, 4] | CC50 ([1]; vero c1008) | CC50 ([2]; vero c1008) |
| --- | --- | --- | --- | --- |
| O=C(NCCC1CC1)[C@H](Nc1ccc2c(c1)CNC2)c1cc(Cl)cc(C2CC2)c1 | 16.7 µM | 11.8 µM | – | – |
| O=C(Nc1ccc2c(c1)CNC2)c1cc(Cl)cc2cc[nH]c12 | 19.7 µM | 5.91 µM | – | – |
| O=C(Nc1cc(Br)c2c(c1)CNC2)c1cc(F)cc2[nH]ncc12 | > 50 µM | > 50 µM | – | – |
| O=C(NC1CCOCC1)[C@H](Nc1ccc2c(c1)CNC2)c1cc(Cl)cc2[nH]ncc12 | > 50 µM | > 50 µM | – | – |
| CC1=C(c2cc(NC(=O)c3cc(Cl)cc4[nH]ncc34)cc3c2CNC3)CCC1=O | > 50 µM | > 50 µM | – | – |
| O=C(Nc1ccc2c(c1)CNC2)c1cc(F)c2[nH]ccc2c1 | > 50 µM | 48.1 µM | – | – |
| Cn1c(=O)[nH]c2c(C(=O)Nc3ccc4c(c3)CNC4)cc(Br)cc21 | > 50 µM | 34.2 µM | – | – |
| O=C(Nc1cc2c(c(C3=CC[C@H](O)CC3)c1)CNC2)c1cc(Cl)cc2[nH]ncc12 | > 50 µM | > 50 µM | – | – |
| O=C(Nc1ccc2c(c1)CNC2)c1cc(F)cc2c1CCC2 | > 50 µM | 33 µM | – | – |
| Cc1cccc(-c2nc3c(C(=O)Nc4ccc5c(c4)CNC5)cc(Cl)cc3[nH]2)c1O | 9 µM | 3.03 µM | 8.94 µM | 3.17 µM |
| O=C(Nc1ccc2c(c1)CNC2)c1cccc2[nH]c(=O)[nH]c12 | 33.3 µM | > 50 µM | – | – |
| CC(C)CNC(=O)[C@H](Nc1ccc2c(c1)CNC2)c1cc(Cl)cc2[nH]ncc12 | 17 µM | > 50 µM | – | – |
| CCOCCNC(=O)[C@H](Nc1ccc2c(c1)CNC2)c1cc(Cl)cc2[nH]ncc12 | 9.94 µM | > 50 µM | – | – |
| CCCNC(=O)[C@H](Nc1ccc2c(c1)CNC2)c1cc(Cl)cc2[nH]ncc12 | 12.9 µM | > 50 µM | – | – |
| O=C(Nc1cc2c(cc1Br)CNC2)c1cc(F)cc2[nH]ncc12 | > 50 µM | 46.1 µM | – | – |
| O=C(Nc1ccc2c(c1)CNC2)c1cc(F)cc(-c2cnc(C3CC3)s2)c1 | 16.4 µM | 19.7 µM | – | – |
